Assay results taken from patent US20230271956A1, “AMIDE DERIVATIVES” (Merck Patent GmbH, priority 2020, published 2023).

Columns and labels:
CHO-K1 cells = assay: Micronucleus assay (MNT) in vitro; type: cell-based; design: key: A: negative, putative negative (micronuclei detected beyond threshold of 60% cyctotoxicity); B: positive; settings: 24 hrs treatment, 0.2 µM to 100 µM
Description: The in vitro MNT assay is performed in CHO-K1 cells due to their stable and welI-characterized karyotype, high sensitivity and suitability for a high content imaging approach. They have a basal spontaneous micronucleus frequency of 3-4%.
24 hrs after plating CHO-K1 cells are treated with test compounds for 24 hrs (in duplicates; fixed concentration ranges from 0.2 µM to 100 µM in 2-fold dilution steps). After a medium change cells are incubated for 24 hrs with Cytochalasin B to block cytokinesis and are then fixed and nuclei / micronuclei visualized with a DNA stain. Images are acquired with the Molecular Devices high content imagers IXU or IXM and are analyzed with the dedicated MetaXpress software micronucleus module. Criteria for scoring of micronuclei (MN) are the following: • diameter of the MN should be less than ⅓ of the main nucleus • MN should be separated from or marginally overlap with main nucleus (= no blebs) • MN should have similar staining as the main nucleus At least 1000 binucleated cells are evaluated per treatment replicate. Mitomycin C is used as reference stimulator of micronucleus formation. Cytotoxicity is evaluated in parallel and defined by comparing total nuclei count in compound-treated samples to neutral control samples treated with vehicle only (1% DMSO) (100% cytotoxicity means all cells are dead or lost).
A test compound is regarded as POSITIVE if generation of micronuclei and exhibition of less than 60% cytotoxicity at the same concentration can be observed.
Compounds are scored only in the soluble concentration range. Experimental data of the compounds shown in Table 1 in the MNT assay are shown in Table 2 below and classified in the following groups: […]

human rec ACSS2 = target: T1, human rec ACSS2 (Homo sapiens, UniProt Q9NR19); assay: Biochemical activity ACSS2 assay (AMP-Glo); settings: human recombinant ACSS2, AMP-Glo, 180 min at 37° C.
T1 construct: myc (C); purchased Origene
In short: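 C-terminal myc-tagged human recombinant ACSS2 (1 nM) reacted with 100 µM ATP, 100 µM CoA and 500 µM acetate (final) in pH 7.5 Hepes buffer for 180 min at 37° C, compound in 10 concentrations from 30 µM. Released AMP detected by AMP-Glo luminescence. IC50 normalised to inhibitor-free reaction and 5 µM reference inhibitor.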

ACSS2 = target: T2, ACSS2 (Homo sapiens, UniProt Q9NR19); assay: Cellular assay of 14C acetate incorporation into fatty acids (IC50 ACSS2 cellular lipids); type: cell-based; settings: HCT-15 cells
T2 construct: endogenous fatty acid synthesis activity in the human HCT-15 cancer cell line; endogenous in cells; host or cells: HCT-15
In short: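 Human HCT-15 cells, 24 h on collagen, pre-incubated with compound 2 h at 37 °C in RPMI 1640/10 mM HEPES (≤0.1% DMSO), then 2 h with 14C-acetate plus AlamarBlue as viability check. Lysis at 70 °C, acidified fatty acids captured on scintillant plates; 14C incorporation counted as CPM.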

T1 sequence (Q9NR19 whole entry): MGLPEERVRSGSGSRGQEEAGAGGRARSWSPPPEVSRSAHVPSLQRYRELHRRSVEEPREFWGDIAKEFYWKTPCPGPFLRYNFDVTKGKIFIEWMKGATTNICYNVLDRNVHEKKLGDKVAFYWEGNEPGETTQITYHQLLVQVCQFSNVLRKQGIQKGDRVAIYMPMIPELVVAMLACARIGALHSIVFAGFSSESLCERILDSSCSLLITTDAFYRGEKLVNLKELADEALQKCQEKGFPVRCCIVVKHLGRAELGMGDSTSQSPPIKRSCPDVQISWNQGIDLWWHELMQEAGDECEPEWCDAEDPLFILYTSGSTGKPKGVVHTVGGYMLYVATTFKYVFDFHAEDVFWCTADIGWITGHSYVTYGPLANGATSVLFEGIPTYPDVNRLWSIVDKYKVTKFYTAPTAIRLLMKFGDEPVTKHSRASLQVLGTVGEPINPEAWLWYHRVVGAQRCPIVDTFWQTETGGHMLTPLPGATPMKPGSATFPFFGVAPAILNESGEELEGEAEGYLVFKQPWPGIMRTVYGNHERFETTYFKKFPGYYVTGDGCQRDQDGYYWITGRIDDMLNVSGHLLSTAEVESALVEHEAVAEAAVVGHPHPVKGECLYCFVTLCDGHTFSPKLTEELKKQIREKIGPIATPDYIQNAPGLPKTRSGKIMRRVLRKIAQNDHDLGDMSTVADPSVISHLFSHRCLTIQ
T2 sequence (Q9NR19 whole entry): as above

| SMILES | MNT (CHO-K1 cells) | IC50 (human rec ACSS2) [nM] | IC50 (ACSS2) [nM] |
| --- | --- | --- | --- |
| CCc1c(C(O)(c2ccccc2)c2ccccc2)nc2cc(OC)c(C(=O)Nc3cnn(CC)c3)cn12 [Compound 23, 3-Ethyl-2-(hydroxy-diphenyl-methyl)-7-methoxy-imidazo[1,2-a]pyridine-6-carboxylic acid (1-ethyl-1H-pyrazol-4-yl)-amide] | A | 1 to 10 | 10 to 100 |
| CCc1c(C(O)(c2ccccc2)c2ccccc2)nc2cc(OC)c(C(=O)Nc3ncn(CC)n3)cn12 [Compound 24, 3-Ethyl-2-(hydroxy-diphenyl-methyl)-7-methoxy-imidazo[1,2-a]pyridine-6-carboxylic acid (1-ethyl-1H-[1,2,4]triazol-3-yl)-amide] | A | 1 to 10 | 1 to 10 |
| CCc1c(C(O)(c2ccccc2)c2ccccc2)nc2ccc(C(=O)Nc3ncn(CC)n3)cn12 [Compound 25, 3-Ethyl-2-(hydroxy-diphenyl-methyl)-imidazo[1,2-a]pyridine-6-carboxylic acid (1-ethyl-1H-[1,2,4]triazol-3-yl)-amide] | A | 1 to 10 | 1 to 10 |
| CCc1c(C(O)(c2ccccc2F)c2ccccc2F)nc2cc(OC)c(C(=O)Nc3ncn(CC)n3)cn12 [Compound 28, 2-[Bis-(2-fluoro-phenyl)-hydroxy-methyl]-3-ethyl-7-methoxy-imidazo[1,2-a]pyridine-6-carboxylic acid (1-ethyl-1H-[1,2,4]triazol-3-yl)-amide] | A | 1 to 10 | 1 to 10 |
| CCc1c(C(O)(c2ccccc2F)c2ccccc2F)nc2cc(OC)c(C(=O)Nc3cnn(CC)c3)cn12 [Compound 30, 2-[Bis-(2-fluoro-phenyl)-hydroxy-methyl]-3-ethyl-7-methoxy-imidazo[1,2-a]pyridine-6-carboxylic acid (1-ethyl-1H-pyrazol-4-yl)-amide] | A | 1 to 10 | 0.01 to 1 |
| CCc1c(C(O)(c2ccccc2F)c2ccccc2F)nc2cc(Cl)c(C(=O)Nc3ncn(CC)n3)cn12 [Compound 31, 2-[Bis-(2-fluoro-phenyl)-hydroxy-methyl]-7-chloro-3-ethyl-imidazo[1,2-a]pyridine-6-carboxylic acid (1-ethyl-1H-[1,2,4]triazol-3-yl)-amide] | A | 1 to 10 | 1 to 10 |
| CCn1cnc(NC(=O)c2cc3c(nc2F)nc(C(O)(c2ccccc2)c2ccccc2)n3CC)n1 [Compound 89, 1-ethyl-N-(1-ethyl-1H-1,2,4-triazol-3-yl)-5-fluoro-2-(hydroxydiphenylmethyl)-1H-imidazo[4,5-b]pyridine-6-carboxamide] | A | 1 to 10 | 1 to 10 |
| CCn1cc(NC(=O)c2cc3c(nc2F)nc(C(O)(c2ccccc2F)c2ccccc2F)n3CC)cn1 [Compound 90, 2-[bis(2-fluorophenyl)(hydroxy)methyl]-1-ethyl-N-(1-ethyl-1H-pyrazol-4-yl)-5-fluoro-1H-imidazo[4,5-b]pyridine-6-carboxamide] | A | 1 to 10 | 1 to 10 |
| CCn1cnc(NC(=O)c2cc3c(nc2F)nc(C(O)(c2ccccc2F)c2ccccc2F)n3CC)n1 [Compound 91, 2-[bis(2-fluorophenyl)(hydroxy)methyl]-1-ethyl-N-(1-ethyl-1H-1,2,4-triazol-3-yl)-5-fluoro-1H-imidazo[4,5-b]pyridine-6-carboxamide] | A | 1 to 10 | 1 to 10 |
| CCn1cc(NC(=O)c2cc3c(nc2Cl)nc(C(O)(c2ccccc2)c2ccccc2)n3CC)cn1 [Compound 98, 5-chloro-1-ethyl-N-(1-ethyl-1H-pyrazol-4-yl)-2-(hydroxydiphenylmethyl)-1H-imidazo[4,5-b]pyridine-6-carboxamide] | A | 1 to 10 | 10 to 100 |
| CCn1cnc(NC(=O)c2cc3c(nc2OC)nc(C(O)(c2ccccc2F)c2ccccc2F)n3CC)n1 [Compound 102, 2-[bis(2-fluorophenyl)(hydroxy)methyl]-1-ethyl-N-(1-ethyl-1H-1,2,4-triazol-3-yl)-5-methoxy-1H-imidazo[4,5-b]pyridine-6-carboxamide] | A | 0.01 to 1 | 1 to 10 |
| CCn1cnc(NC(=O)c2cc3c(nc2OC)nc(C(O)(c2ccccc2)c2ccccc2)n3CC)n1 [Compound 103, 1-ethyl-N-(1-ethyl-1H-1,2,4-triazol-3-yl)-2-(hydroxydiphenylmethyl)-5-methoxy-1H-imidazo[4,5-b]pyridine-6-carboxamide] | A | 1 to 10 | 1 to 10 |
| CCn1c(C(O)(c2ccccc2)c2ccccc2)nc2ccc(C(=O)NC[C@@H](C)O)cc21 [Reference Compound, 3-Ethyl-2-[hydroxy(diphenyl)methyl]-N-[(2R)-2-hydroxypropyl]benzimidazole-5-carboxamide, reference compound] | B | 100 to 10000 | 1 to 10 |
